Assay results reported in publication PMC11808397, “Development of selective nanomolar cyclic peptide ligands as GBA1 enzyme stabilisers” (RSC Chemical Biology, 2025).
Positions of bridges follow the written chain, without caps; N, C: chain ends. Non-standard residues stand in square brackets, D forms with d. Residues, ends and D or L forms follow the SMILES beside them.

How the values were obtained:
[1] = target: T1, recombinant human GBA1 (rhGBA1, Cerezyme) (Homo sapiens, UniProt P04062, R534H); experiment: rhGBA1 Ki / kinetic studies with varied 4-MU substrate; format: biochemical; settings: 4MU substrate 0.05-5 mM, no pre-incubation, mean ± SD from 3 technical triplicates
T1 construct: purchased Cerezyme
T1 sequence (P04062 40-536 R534H): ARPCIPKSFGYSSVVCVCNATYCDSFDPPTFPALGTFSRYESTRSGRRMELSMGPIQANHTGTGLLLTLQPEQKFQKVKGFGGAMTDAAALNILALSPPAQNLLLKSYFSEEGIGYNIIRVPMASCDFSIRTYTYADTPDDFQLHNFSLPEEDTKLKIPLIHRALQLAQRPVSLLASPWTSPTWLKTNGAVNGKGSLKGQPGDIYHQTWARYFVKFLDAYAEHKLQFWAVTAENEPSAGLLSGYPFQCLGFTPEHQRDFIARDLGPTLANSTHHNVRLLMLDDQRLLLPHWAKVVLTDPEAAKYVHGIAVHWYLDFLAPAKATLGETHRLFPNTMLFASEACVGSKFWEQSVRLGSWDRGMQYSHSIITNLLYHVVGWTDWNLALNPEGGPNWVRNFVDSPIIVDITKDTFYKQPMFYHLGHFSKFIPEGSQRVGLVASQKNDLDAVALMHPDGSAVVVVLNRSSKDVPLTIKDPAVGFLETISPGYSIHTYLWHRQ
Description: (§1) Based on the pull-down validation, a set of eight cyclic peptides (L1, L2, L4, L6, D1, D8, D12 and D13) were identified, synthesized, and evaluated for their inhibitory potency against recombinant human GBA1 (rhGBA1, Cerezyme®) and their selectivity over human β-glucosidases GBA2 and GBA3. Half-maximum inhibitory concentration (IC50) values for β-glucosidases were determined in vitro by measuring hydrolysis of 4-methylumbelliferyl-β-D-glucopyranoside (4-MU-β-D-Glu) fluorogenic substrate.
Selective Cyclic Peptide Ligands as GBA1 Stabilizers Katzy et al.
Figure S4. Inhibitory constant (Ki) values using increasing concentrations of 4-MU-beta-glucoside as fluorogenic substrate. Enzyme activity (nmol h-1 mg-1) versus MU substrate concentrations is plotted (See Table 1 for Ki values) for inhibitors L2, L4, L6, D1, D8, and D12, and corresponding Lineweaver Burk plots are shown on the right.
(1 picture or pasted object on this page, not shown here)
GBA1 Ki values were determined using the same incubation times and buffers as described above following a previously described protocol.6 4MU-β-D-glucopyranoside concentration was varied […]
between 0.05 mM and 5 mM. […]
2.8. Thermostability assays in rhGBA (Cerezyme)
Varying concentrations of peptides were incubated with 1 µM rhGBA1 in 20 mM HEPES pH 7.0 with 100 mM NaCl, with a final DMSO concentration of 0.5 %, for 2 hours at room temperature. Melting

[2] = target: T1, recombinant human GBA1 (rhGBA1, Cerezyme); experiment: In vitro rhGBA1 inhibition, 4-MU-β-D-glucopyranoside hydrolysis; format: biochemical; settings: Cerezyme 14 nM, 3.7 mM 4-MU-β-D-glucopyranoside, McIlvaine pH 5.2, 30 min pre-incubation 37 °C + 30 min, mean ± SD from 3 technical triplicates; for IC50: SD
Description: as §1, with “substrate. […]” for “substrate.”
Pure product fractions were pooled, lyophilized, and dissolved again in DMSO before concentration was determined by A280 using a sample diluted in phosphate buffer at pH 7.4 and extinction coefficients determined from the sequence using the Expasy ProtParam online tool (https://web.expasy.org/protparam/). […]
2.5. In vitro IC50 and Ki measurements
For GBA1, IC50 values were determined using the recombinant human GBA1 (rhGBA1, Cerezyme) following described procedures.4 Enzyme activity was measured using 3.7 mM 4-methylumbeliferone (4MU)-β-D-glucopyranoside in 150 mM McIlvaine buffer pH 5.2 supplemented with 0.1% bovine serum albumin (BSA) (w/v), 0.1% Triton X-100 (v/v), and 0.2% sodium taurocholate (w/v). Varying concentrations of inhibitor (12.5 µL) were incubated with 12.5 µL of enzyme (final concentration 14 nM) at 37 °C for 30 min. Following this, 100 µL of 4MU substrate was added and the samples were again incubated at 37 °C for 30 min. The reaction was quenched using excess 1 M NaOH-glycine (200 µL, pH 10.3) and 4MU fluorescence was measured using a LS55 fluorimeter (λEx 366 nm and λEm 445 […]
30 min at 37 °C (12.5 µL) and subsequently incubated with the tested ligands at a range of concentrations for 30 min at 37 °C (12.5 µL), after which 100 µL 4MU-β-D-glucopyranoside was added for a final incubation of 30 min at 37 °C, quenched with 200 µL 1 M NaOH-glycine (pH 10.3) and fluorescence was measured. IC50 values were calculated using GraphPad Prism version 8.

Structure (SMILES) | Ki [1] | rhGBA1 IC50 [2] | IC50 [2]
CC[C@H](C)[C@H](NC(=O)[C@H](CC(C)C)NC(=O)[C@H](Cc1ccc(O)cc1)NC(=O)[C@H](Cc1ccc(O)cc1)NC(=O)[C@@H]1CSCC(=O)N[C@H](Cc2ccc(O)cc2)C(=O)N[C@@H](CCCNC(=N)N)C(=O)N[C@@H](C(C)C)C(=O)N1)C(=O)N[C@H](C(=O)N[C@H](C(=O)N[C@@H](CC(C)C)C(=O)N[C@@H](CC(=O)O)C(=O)N[C@@H](CS)C(N)=O)C(C)C)[C@@H](C)O [D1] ({CH2CO}-[dY]RVCYYLITVLDC-NH2; thioether N-4) | 0.0009 ± 0.0001 µM | low nanomolar | 0.005 ± 0.003 µM
CC(C)C[C@H](NC(=O)[C@@H](NC(=O)[C@H](CCCNC(=N)N)NC(=O)[C@@H]1CSCC(=O)N[C@H](Cc2ccc(O)cc2)C(=O)N[C@@H]([C@@H](C)O)C(=O)N2CCC[C@H]2C(=O)NCC(=O)N[C@@H](Cc2ccc(O)cc2)C(=O)N[C@@H](C(C)C)C(=O)N[C@@H](Cc2ccc(O)cc2)C(=O)N1)C(C)C)C(=O)N[C@@H](CCCCN)C(=O)N[C@@H](Cc1ccc(O)cc1)C(=O)N[C@@H](CS)C(N)=O [D8] ({CH2CO}-[dY]TPGYVYCRVLKYC-NH2; thioether N-8) | 0.013 ± 0.004 µM | – | 0.012 ± 0.011 µM
CC(C)C[C@@H]1NC(=O)CNC(=O)[C@H](CC(C)C)NC(=O)[C@@H](Cc2ccc(O)cc2)NC(=O)CSC[C@@H](C(N)=O)NC(=O)[C@H](CO)NC(=O)[C@H](CCCCN)NC(=O)[C@H](CC(C)C)NC(=O)[C@H](Cc2ccccc2)NC(=O)[C@H](CCCNC(=N)N)NC(=O)[C@H](Cc2ccc(O)cc2)NC(=O)[C@H](Cc2c[nH]c3ccccc23)NC1=O [D12] ({CH2CO}-[dY]LGLWYRFLKSC-NH2; thioether N-12) | 0.001 ± 0.0004 µM | low nanomolar | 0.004 ± 0.004 µM
CC[C@H](C)[C@@H]1NC(=O)[C@H](CO)NC(=O)[C@H](CS)NC(=O)CNC(=O)CNC(=O)[C@H](CC(C)C)NC(=O)[C@H](Cc2ccc(O)cc2)NC(=O)[C@H](C(C)C)NC(=O)[C@H](CC(C)C)NC(=O)[C@H](CCCNC(=N)N)NC(=O)[C@@H]2CCCN2C(=O)[C@H](Cc2ccc(O)cc2)NC(=O)CSC[C@@H](C(N)=O)NC(=O)[C@H](CCC(=O)O)NC(=O)[C@H](CC(C)C)NC(=O)[C@H](CC(C)C)NC1=O [L1] ({CH2CO}-YPRLVYLGGCSILLEC-NH2; thioether N-16) | – | high micromolar range | 138 ± 55.8 µM
CC[C@H](C)[C@H](NC(=O)[C@H](CCCNC(=N)N)NC(=O)[C@@H]1CSCC(=O)N[C@@H](Cc2ccc(O)cc2)C(=O)N[C@@H](C)C(=O)N[C@@H](Cc2ccc(O)cc2)C(=O)N[C@@H](Cc2c[nH]c3ccccc23)C(=O)N[C@@H](Cc2c[nH]c3ccccc23)C(=O)N[C@@H](CC(C)C)C(=O)N1)C(=O)N1CCC[C@H]1C(=O)N[C@@H](Cc1c[nH]c2ccccc12)C(=O)N[C@@H](CC(C)C)C(=O)N[C@@H](CO)C(=O)N[C@H](C(N)=O)C(C)C [L2] ({CH2CO}-YAYWWLCRIPWLSV-NH2; thioether N-7) | 0.042 ± 0.007 µM | – | 0.34 ± 0.16 µM
CC(C)C[C@@H]1NC(=O)CNC(=O)[C@H](Cc2ccccc2)NC(=O)[C@H](CC(C)C)NC(=O)[C@@H]2CCCN2C(=O)[C@H](Cc2ccc(O)cc2)NC(=O)CSC[C@@H](C(=O)N2CCC[C@H]2C(=O)N[C@@H](CC(N)=O)C(=O)N[C@@H](Cc2c[nH]c3ccccc23)C(=O)N[C@@H](Cc2ccccc2)C(=O)N2CCC[C@H]2C(=O)N[C@@H](Cc2ccc(O)cc2)C(=O)N[C@@H](CCC(N)=O)C(=O)N[C@@H](CS)C(N)=O)NC(=O)[C@H](CO)NC(=O)[C@H](Cc2ccccc2)NC1=O [L4] ({CH2CO}-YPLFGLFSCPNWFPYQC-NH2; thioether N-9) | 0.002 ± 0.001 µM | low nanomolar | 0.009 ± 0.004 µM
CC[C@H](C)[C@@H]1NC(=O)[C@H](Cc2ccc(O)cc2)NC(=O)CSC[C@@H](C(N)=O)NC(=O)[C@H](Cc2c[nH]c3ccccc23)NC(=O)[C@H](CCC(N)=O)NC(=O)[C@H]([C@@H](C)CC)NC(=O)[C@H]([C@@H](C)CC)NC(=O)[C@@H]2CCCN2C(=O)[C@H](C(C)C)NC(=O)[C@H](Cc2ccc(O)cc2)NC(=O)[C@H](Cc2c[nH]c3ccccc23)NC(=O)[C@H](CO)NC1=O [L6] ({CH2CO}-YISWYVPIIQWC-NH2; thioether N-12) | 1.34 ± 0.203 µM | – | 5.66 ± 2.04 µM
